Assay results as given in PMC11558128 (Advanced Science, 2024).
Changes are numbered by the printed parent chain. Positions of bridges follow the written chain, without caps; N, C: chain ends. Residues, ends and D or L forms follow the SMILES beside them.

Key:
[1] = molecular target: T1, hNav1.7 (Homo sapiens, UniProt Q15858); experiment: cell-based; conditions: whole-cell patch clamp, HEK293T, hNav1.7 with β1 and β2; held at -90 mV, step to 0 mV; mean ± S.E.M., n = 3-7; SEM; read-out: IC50 for hNav1.7
T1 construct: expressed in transfected cells; host or cells: HEK293T
T1 sequence (O60939 30-215): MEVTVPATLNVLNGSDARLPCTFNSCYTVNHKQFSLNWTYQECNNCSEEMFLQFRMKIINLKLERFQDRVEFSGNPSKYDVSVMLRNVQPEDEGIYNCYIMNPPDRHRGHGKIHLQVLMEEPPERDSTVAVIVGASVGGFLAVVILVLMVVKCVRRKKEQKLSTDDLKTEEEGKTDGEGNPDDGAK
T1 sequence (Q15858 other isoform, or with tags, fused parts or gaps): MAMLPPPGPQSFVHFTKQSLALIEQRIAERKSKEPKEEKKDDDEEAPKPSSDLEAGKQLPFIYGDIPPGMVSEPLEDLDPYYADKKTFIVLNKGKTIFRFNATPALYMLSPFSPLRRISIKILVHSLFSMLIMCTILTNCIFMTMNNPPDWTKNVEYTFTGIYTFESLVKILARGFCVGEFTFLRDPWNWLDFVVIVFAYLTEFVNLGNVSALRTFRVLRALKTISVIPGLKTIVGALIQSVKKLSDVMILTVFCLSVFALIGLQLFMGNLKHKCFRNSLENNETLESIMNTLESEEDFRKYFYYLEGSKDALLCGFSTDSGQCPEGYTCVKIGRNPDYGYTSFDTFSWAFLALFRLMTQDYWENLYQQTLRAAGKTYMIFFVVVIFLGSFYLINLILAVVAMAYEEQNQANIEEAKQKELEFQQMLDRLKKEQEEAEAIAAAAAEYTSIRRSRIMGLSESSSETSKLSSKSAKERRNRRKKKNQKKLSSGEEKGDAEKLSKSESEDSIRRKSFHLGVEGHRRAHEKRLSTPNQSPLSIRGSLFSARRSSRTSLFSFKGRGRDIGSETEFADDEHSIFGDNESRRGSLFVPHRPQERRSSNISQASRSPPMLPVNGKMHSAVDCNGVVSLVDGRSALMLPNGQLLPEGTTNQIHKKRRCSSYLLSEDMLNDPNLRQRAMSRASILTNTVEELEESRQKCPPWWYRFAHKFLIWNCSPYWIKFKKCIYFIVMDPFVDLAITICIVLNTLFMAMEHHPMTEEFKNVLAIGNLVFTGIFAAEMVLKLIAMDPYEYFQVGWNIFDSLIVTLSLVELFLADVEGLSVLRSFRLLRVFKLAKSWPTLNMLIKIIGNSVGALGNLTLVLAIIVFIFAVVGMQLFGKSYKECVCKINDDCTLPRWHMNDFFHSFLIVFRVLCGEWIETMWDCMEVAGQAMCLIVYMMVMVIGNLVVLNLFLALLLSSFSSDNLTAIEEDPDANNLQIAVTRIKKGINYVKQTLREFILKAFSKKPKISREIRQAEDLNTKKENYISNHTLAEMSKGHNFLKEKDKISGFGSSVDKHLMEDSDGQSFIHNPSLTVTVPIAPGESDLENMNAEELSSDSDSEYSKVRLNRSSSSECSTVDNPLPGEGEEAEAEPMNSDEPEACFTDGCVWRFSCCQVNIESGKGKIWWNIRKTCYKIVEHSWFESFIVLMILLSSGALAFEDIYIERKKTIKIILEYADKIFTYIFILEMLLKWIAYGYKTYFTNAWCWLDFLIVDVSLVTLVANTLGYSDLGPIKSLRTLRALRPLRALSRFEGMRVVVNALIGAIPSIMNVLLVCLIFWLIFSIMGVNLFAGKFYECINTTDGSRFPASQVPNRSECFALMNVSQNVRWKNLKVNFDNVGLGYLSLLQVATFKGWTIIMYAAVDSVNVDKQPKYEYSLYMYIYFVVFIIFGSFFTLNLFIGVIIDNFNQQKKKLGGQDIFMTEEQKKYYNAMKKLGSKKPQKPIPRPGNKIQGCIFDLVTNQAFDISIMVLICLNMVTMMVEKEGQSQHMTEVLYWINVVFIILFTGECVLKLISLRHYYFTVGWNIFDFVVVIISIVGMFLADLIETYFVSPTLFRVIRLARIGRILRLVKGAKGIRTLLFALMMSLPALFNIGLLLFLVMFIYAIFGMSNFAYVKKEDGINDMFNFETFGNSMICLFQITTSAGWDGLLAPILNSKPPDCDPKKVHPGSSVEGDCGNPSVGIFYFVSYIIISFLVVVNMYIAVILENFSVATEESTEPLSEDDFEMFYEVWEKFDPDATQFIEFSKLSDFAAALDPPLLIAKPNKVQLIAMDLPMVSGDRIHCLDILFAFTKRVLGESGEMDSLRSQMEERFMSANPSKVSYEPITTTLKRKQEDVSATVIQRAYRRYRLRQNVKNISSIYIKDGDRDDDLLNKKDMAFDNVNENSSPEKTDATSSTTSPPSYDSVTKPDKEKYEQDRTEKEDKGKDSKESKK
T1 sequence (Q07699 19-218, further chain): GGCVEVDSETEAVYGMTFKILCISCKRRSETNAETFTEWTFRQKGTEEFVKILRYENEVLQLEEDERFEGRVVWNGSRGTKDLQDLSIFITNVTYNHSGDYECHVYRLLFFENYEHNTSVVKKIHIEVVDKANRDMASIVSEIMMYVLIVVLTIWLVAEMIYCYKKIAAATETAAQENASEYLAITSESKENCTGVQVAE

[2] = molecular target: T2, rKv4.2 N282A (Rattus norvegicus, UniProt Q63881, N282A); experiment: cell-based; conditions: mean ± SEM
T2 construct: expressed in transfected cells; host or cells: HEK293T
T2 sequence (Q63881 1-630 N282A): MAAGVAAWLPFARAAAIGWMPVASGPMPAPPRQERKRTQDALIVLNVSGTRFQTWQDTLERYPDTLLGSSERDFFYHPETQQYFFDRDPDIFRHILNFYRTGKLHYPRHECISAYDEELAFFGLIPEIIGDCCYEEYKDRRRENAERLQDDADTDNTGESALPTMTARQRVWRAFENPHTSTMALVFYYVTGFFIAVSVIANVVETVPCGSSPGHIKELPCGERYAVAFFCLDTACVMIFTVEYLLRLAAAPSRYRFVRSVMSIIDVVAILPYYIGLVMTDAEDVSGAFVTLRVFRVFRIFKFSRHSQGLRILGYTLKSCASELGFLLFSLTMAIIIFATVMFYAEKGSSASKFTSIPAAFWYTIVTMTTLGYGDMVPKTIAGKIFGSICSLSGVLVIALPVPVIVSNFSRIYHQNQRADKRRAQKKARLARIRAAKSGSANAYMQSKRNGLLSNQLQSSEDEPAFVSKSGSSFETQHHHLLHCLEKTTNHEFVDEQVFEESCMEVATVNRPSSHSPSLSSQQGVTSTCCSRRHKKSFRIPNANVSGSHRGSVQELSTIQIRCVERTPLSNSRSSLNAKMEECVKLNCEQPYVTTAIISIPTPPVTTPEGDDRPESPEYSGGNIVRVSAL

[3] = molecular target: T3, rKv4.2 D281K (Rattus norvegicus, UniProt Q63881, D281K); experiment: cell-based; conditions: mean ± SEM
T3 construct: expressed in transfected cells; host or cells: HEK293T
T3 sequence (Q63881 1-630 D281K): T2 sequence (Q63881 1-630 N282A) with D281K, A282N

[4] = molecular target: T4, rKv4.2 V278A (Rattus norvegicus, UniProt Q63881, V278A); experiment: cell-based; conditions: mean ± SEM
T4 construct: expressed in transfected cells; host or cells: HEK293T
T4 sequence (Q63881 1-630 V278A): T2 sequence (Q63881 1-630 N282A) with V278A, A282N

[5] = tested on: other Kv channels (hKv1.1-1.5, rKv2.1, hKv3.1-3.4, mKv4.1, hKv7.2 and hERG); conditions: n = 3-4
[6] = molecular target: T5, rKv4.2 E283K (Rattus norvegicus, UniProt Q63881, E283K); experiment: cell-based; conditions: mean ± SEM
T5 construct: expressed in transfected cells; host or cells: HEK293T
T5 sequence (Q63881 1-630 E283K): T2 sequence (Q63881 1-630 N282A) with A282N, E283K

CC(C)C[C@H](NC(=O)[C@H](Cc1ccc(O)cc1)NC(=O)[C@@H](NC(=O)[C@H](CCCCN)NC(=O)[C@@H]1CSSC[C@@H]2NC(=O)[C@H](CCC(=O)O)NC(=O)[C@H](CC(N)=O)NC(=O)[C@H](CCCCN)NC(=O)CNC(=O)[C@@H]3CCCN3C(=O)[C@H]([C@@H](C)O)NC(=O)[C@@H]3CSSC[C@H](NC(=O)[C@H](C)NC(=O)[C@H](Cc4ccc(O)cc4)NC(=O)[C@H](CC(N)=O)NC(=O)[C@@H]4CCCN4C(=O)[C@H](CSSC[C@H](NC(=O)CN)C(=O)N[C@@H](CCCCN)C(=O)NCC(=O)N[C@@H](Cc4ccccc4)C(=O)NCC(=O)N[C@@H](CC(=O)O)C(=O)N[C@@H](CO)C(=O)N3)NC2=O)C(=O)N[C@@H](CO)C(=O)N[C@@H](CO)C(=O)N[C@@H](CCCCN)C(=O)N[C@@H](Cc2c[nH]cn2)C(=O)N[C@@H](CCCCN)C(=O)N[C@@H](Cc2c[nH]c3ccccc23)C(=O)N1)C(C)C)C(N)=O [HNTX-III] (H-GCKGFGDSCTPGKNECCPNYACSSKHKWCKVYL-NH2; disulfide 2-17, 9-22, 16-29)
IC50 [1]: 207 ± 57.2 nM | IC50 [2]: 8 ± 2 nM | IC50 [3]: 5000 ± 1000 nM | IC50 [4]: 177 ± 63 nM | effect on the current traces of other Kv channels ([5]; 1 µM toxin): no obvious or only minimal effect | IC50 [6]: 3000 ± 1000 nM

CC[C@H](C)[C@H](NC(=O)[C@H](CCC(=O)O)NC(=O)[C@H](Cc1ccc(O)cc1)NC(=O)[C@H](CCCCN)NC(=O)[C@@H]1CSSC[C@@H]2NC(=O)[C@H](CCC(N)=O)NC(=O)[C@H](CC(=O)O)NC(=O)[C@H](CC(N)=O)NC(=O)[C@H](CO)NC(=O)[C@@H]3CCCN3C(=O)[C@H](CC(N)=O)NC(=O)[C@@H]3CSSC[C@H](NC(=O)[C@H](C(C)C)NC(=O)[C@H](CC(C)C)NC(=O)[C@H](CC(N)=O)NC(=O)[C@H](CO)NC(=O)[C@H](CO)NC(=O)[C@H](CCCCN)NC(=O)[C@H](CSSC[C@H](NC(=O)[C@@H](N)CCC(=O)O)C(=O)N[C@@H](CC(C)C)C(=O)NCC(=O)N[C@@H](Cc4ccccc4)C(=O)NCC(=O)N[C@@H](CCCCN)C(=O)NCC(=O)N3)NC2=O)C(=O)N[C@@H](CO)C(=O)N[C@@H](CCCNC(=N)N)C(=O)N[C@@H](CCCCN)C(=O)N[C@@H](Cc2c[nH]cn2)C(=O)N[C@@H](CCCNC(=N)N)C(=O)N[C@@H](Cc2c[nH]c3ccccc23)C(=O)N1)C(N)=O [HNTX-IV]
IC50 [1]: 243 ± 42.5 nM | IC50 [2]: 11 ± 2 nM | IC50 [3]: 191 ± 32 nM | IC50 [4]: 182 ± 50 nM | IC50 [6]: 5630 ± 1280 nM

CSCC[C@@H]1NC(=O)CNC(=O)[C@H](CCC(=O)O)NC(=O)[C@@H]2CSSC[C@H](NC(=O)[C@@H](N)Cc3ccc(O)cc3)C(=O)N[C@@H](CCC(N)=O)C(=O)N[C@@H](CCCCN)C(=O)N[C@@H](Cc3c[nH]c4ccccc34)C(=O)N[C@@H](CCSC)C(=O)N[C@@H](Cc3c[nH]c4ccccc34)C(=O)N[C@@H]([C@@H](C)O)C(=O)N[C@H]3CSSC[C@H](NC(=O)[C@H](C(C)C)NC1=O)C(=O)N[C@@H](CCCNC(=N)N)C(=O)N[C@@H](CC(C)C)C(=O)N[C@@H](Cc1c[nH]c4ccccc14)C(=O)N[C@H](C(=O)N[C@@H](CCCCN)C(=O)N[C@@H](CCCCN)C(=O)N[C@@H](CCCCN)C(=O)N[C@@H](CC(C)C)C(=O)N[C@@H](Cc1c[nH]c4ccccc14)C(=O)O)CSSC[C@H](NC(=O)[C@H](CCCCN)NC(=O)[C@H](CCCNC(=N)N)NC(=O)[C@H](CCC(=O)O)NC(=O)[C@H](CO)NC(=O)[C@H](CC(=O)O)NC3=O)C(=O)N2 [ProTx-II]
IC50 [2]: 7 ± 1 nM | IC50 [3]: 27 ± 2 nM | IC50 [4]: 10 ± 2 nM | IC50 [6]: 14 ± 6 nM

CC[C@H](C)[C@@H]1NC(=O)[C@@H]2CSSC[C@@H]3NC(=O)[C@H](C(C)C)NC(=O)[C@H](CC(C)C)NC(=O)[C@H](CC(N)=O)NC(=O)[C@@H]4CCCN4C(=O)[C@H](CCCNC(=N)N)NC(=O)[C@H](CSSC[C@H](NC(=O)[C@@H](N)CC(=O)O)C(=O)N[C@@H](CC(C)C)C(=O)NCC(=O)N[C@@H](C)C(=O)N[C@@H](Cc4ccccc4)C(=O)N[C@@H](CCCNC(=N)N)C(=O)N[C@@H](CCCCN)C(=O)N2)NC(=O)[C@H](CSSC[C@@H](C(=O)N[C@@H](CCCCN)C(=O)N[C@@H](Cc2ccc(O)cc2)C(=O)N[C@H](C(=O)N[C@@H](Cc2ccccc2)C(N)=O)C(C)C)NC(=O)[C@H](Cc2c[nH]c4ccccc24)NC(=O)[C@H](CCCNC(=N)N)NC(=O)[C@H](Cc2c[nH]cn2)NC(=O)[C@H](C)NC(=O)[C@H](CO)NC(=O)[C@H](CO)NC3=O)NC(=O)[C@H](CCCCN)NC(=O)[C@H](CC(=O)O)NC(=O)[C@H](CC(N)=O)NC(=O)[C@H](CC(=O)O)NC(=O)[C@@H]2CCCN2C1=O [mGpTx1-SA] (H-DCLGAFRKCIPDNDKCCRPNLVCSSAHRWCKYVF-NH2; disulfide 2-17, 9-23, 16-30)
IC50 [1]: 40.3 ± 3.2 nM | inhibition on other Kv channel subtypes ([5]; 10 µM): low inhibition
